Assay results: publication doi:10.1101/2025.11.20.689572v1 (biorxiv, 2025)
Like-named read-outs stand apart in the source and are kept apart here.

Columns and labels:
M4 = target: T1, M4 (Homo sapiens, UniProt P08173); assay: TRUPATH BRET2 G protein dissociation, HEK293; assay type: cell-based; settings: HBSS, […] HEPES pH […] °C; agonist mode
T1 construct: gene CHRM4; full-length receptor; HEK293 with TRUPATH sensors (function)
T1 sequence (P08173 1-479): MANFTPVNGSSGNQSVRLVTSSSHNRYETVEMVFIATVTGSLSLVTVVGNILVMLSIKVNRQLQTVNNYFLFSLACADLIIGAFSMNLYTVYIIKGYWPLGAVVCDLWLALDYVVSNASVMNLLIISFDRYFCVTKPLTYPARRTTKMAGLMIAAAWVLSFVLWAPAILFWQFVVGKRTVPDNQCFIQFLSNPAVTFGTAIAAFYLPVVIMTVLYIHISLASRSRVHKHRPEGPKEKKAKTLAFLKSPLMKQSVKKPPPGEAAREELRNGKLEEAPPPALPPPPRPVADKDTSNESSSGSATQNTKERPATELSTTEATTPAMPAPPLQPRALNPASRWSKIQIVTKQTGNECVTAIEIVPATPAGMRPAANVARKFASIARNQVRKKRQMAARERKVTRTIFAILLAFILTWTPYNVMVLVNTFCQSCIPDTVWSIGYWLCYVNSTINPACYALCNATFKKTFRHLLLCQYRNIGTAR

H1 = target: T2, H1 (Homo sapiens, UniProt P35367); assay: competitive radioligand binding, HEK293 membranes
T2 construct: gene HRH1; full-length receptor; HEK293 cell membranes
Excerpt: competitive radioligand binding, HEK293 membranes on H1

5-HT2A = target: T3, 5-HT2A (Homo sapiens, UniProt P28223); assay: competitive radioligand binding, HEK293 membranes
T3 construct: gene HTR2A; full-length receptor; HEK293 cell membranes
Excerpt: competitive radioligand binding, HEK293 membranes on 5-HT2A

5-HT1A = target: T4, 5-HT1A (Homo sapiens, UniProt P08908); assay: TRUPATH BRET2 G protein dissociation, HEK293; assay type: cell-based; settings: HBSS, […] HEPES pH […] °C; agonist mode
T4 construct: gene HTR1A; full-length receptor; HEK293 with TRUPATH sensors

CHRM4 = target: T5, CHRM4 (Homo sapiens, UniProt P08173); assay: cell-based; design: species or system HEK293; TRUPATH BRET2 G-protein dissociation; antagonist mode against agonist EC80; settings: agonist mode, % of control agonist
T5 sequence (P08173 1-479): T1 sequence (P08173 1-479)

CHRM3 = CHRM3 (Homo sapiens, UniProt P20309); assay: cell-based; design: species or system HEK293; TRUPATH BRET2 G-protein dissociation; antagonist mode against agonist EC80; settings: agonist mode, % of control agonist
HRH3 = HRH3 (Homo sapiens, UniProt Q9Y5N1); assay: cell-based; design: species or system HEK293; TRUPATH BRET2 G-protein dissociation; antagonist mode against agonist EC80; settings: agonist mode, % of control agonist
M5 = target: T6, M5 (Homo sapiens, UniProt P08912); assay: TRUPATH BRET2 G protein dissociation, HEK293; assay type: cell-based; settings: HBSS, […] HEPES pH […] °C; agonist mode
T6 construct: gene CHRM5; full-length receptor; HEK293 with TRUPATH sensors (function)
T6 sequence (P08912 1-532): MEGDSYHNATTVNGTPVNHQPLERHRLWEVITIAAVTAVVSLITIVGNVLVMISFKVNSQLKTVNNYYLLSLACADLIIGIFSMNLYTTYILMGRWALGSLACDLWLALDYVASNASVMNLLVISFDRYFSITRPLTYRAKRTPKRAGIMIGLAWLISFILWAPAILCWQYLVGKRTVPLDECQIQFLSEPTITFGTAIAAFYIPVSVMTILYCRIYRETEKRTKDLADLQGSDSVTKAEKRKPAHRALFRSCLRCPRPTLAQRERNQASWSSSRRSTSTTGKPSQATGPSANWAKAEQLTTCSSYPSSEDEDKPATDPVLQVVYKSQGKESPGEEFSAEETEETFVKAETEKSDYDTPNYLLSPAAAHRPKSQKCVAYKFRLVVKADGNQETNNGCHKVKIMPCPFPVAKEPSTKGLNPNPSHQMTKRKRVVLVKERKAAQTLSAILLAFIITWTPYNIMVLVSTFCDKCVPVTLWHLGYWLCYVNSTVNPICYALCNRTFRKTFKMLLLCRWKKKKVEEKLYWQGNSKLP

M2 = target: T7, M2 (Homo sapiens, UniProt P08172); assay: TRUPATH BRET2 G protein dissociation, HEK293; assay type: cell-based; settings: HBSS, […] HEPES pH […] °C; agonist mode
T7 construct: gene CHRM2; full-length receptor; HEK293 with TRUPATH sensors (function)
T7 sequence (P08172 1-466): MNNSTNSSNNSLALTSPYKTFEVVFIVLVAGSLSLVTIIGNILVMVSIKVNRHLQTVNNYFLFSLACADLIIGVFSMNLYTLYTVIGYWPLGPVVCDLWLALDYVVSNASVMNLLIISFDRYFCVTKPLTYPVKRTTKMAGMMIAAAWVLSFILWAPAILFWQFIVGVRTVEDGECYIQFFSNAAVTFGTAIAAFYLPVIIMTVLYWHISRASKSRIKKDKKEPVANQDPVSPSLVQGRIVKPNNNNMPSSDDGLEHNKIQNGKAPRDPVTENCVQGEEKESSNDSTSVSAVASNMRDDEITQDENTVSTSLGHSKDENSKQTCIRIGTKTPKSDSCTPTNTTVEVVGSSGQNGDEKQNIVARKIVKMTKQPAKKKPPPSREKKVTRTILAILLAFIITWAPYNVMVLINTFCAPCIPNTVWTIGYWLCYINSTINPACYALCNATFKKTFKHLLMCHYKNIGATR

KOR = target: T8, KOR (Homo sapiens, UniProt P41145); assay: competitive radioligand binding, HEK293 membranes
T8 construct: gene OPRK1; full-length receptor; HEK293 cell membranes
Excerpt: competitive radioligand binding, HEK293 membranes on KOR

D3 = target: T9, D3 (Homo sapiens, UniProt P35462); assay: competitive radioligand binding, HEK293 membranes
T9 construct: gene DRD3; full-length receptor; HEK293 cell membranes
Excerpt: competitive radioligand binding, HEK293 membranes on D3

[1] = HEK293, read-out: N-Desmethyl Xanomeline, Assay=Gi1
[2] = HEK293, read-out: N-Desmethyl Xanomeline, Assay=Gi2
[3] = HEK293, read-out: N-Desmethyl Xanomeline, Assay=Gi3
[4] = HEK293, read-out: N-Desmethyl Xanomeline, Assay=GoA
[5] = HEK293, read-out: N-Desmethyl Xanomeline, Assay=GoB
[6] = HEK293, read-out: Xanomeline, Assay=Gi2
[7] = HEK293, read-out: Xanomeline, Assay=GoA
[8] = HEK293, read-out: Xanomeline, Assay=GoB

Compound: CCCCCCOc1nsnc1C1=CCCNC1 [N-desmethylxanomeline]
- EC50 (M4): differential activation of M1-M5 muscarinic receptor transducers
- Ki (H1): 724 nM
- Ki (5-HT2A): 537 nM
- EC50 (5-HT1A): full or partial agonists at 5-HT1D and 5-HT1A in a transducer-dependent fashion
- Emax (CHRM4; [1]): 94.1%
- Emax (CHRM4; [2]): 106%
- Emax (CHRM4; [3]): 81.3%
- Emax (CHRM4; [4]): 100%
- Emax (CHRM4; [5]): 102%
- Emax (CHRM4; HEK293, read-out: N-Desmethyl Xanomeline, Assay=Gz): 89%
- Emax (CHRM3; HEK293, read-out: N-Desmethyl Xanomeline, Assay=Gq): 62.4%
- Emax (HRH3; [1]): 75.4%
- Emax (HRH3; [2]): 65.4%
- Emax (HRH3; [3]): 84%
- Emax (HRH3; [4]): 79.3%
- Emax (HRH3; [5]): 82.8%
- EC50 (M5): differential activation of M1-M5 muscarinic receptor transducers
- EC50 (M2): differential activation of M1-M5 muscarinic receptor transducers
- Ki (KOR): 1020 nM
- Ki (D3): 646 nM

Compound: CCCCCCOc1nsnc1C1=CCCN(C)C1 [Xanomeline]
- EC50 (M4): xanomeline being more potent and efficacious than carbachol at M1 and M4 muscarinic receptors
- Ki (H1): 100 nM
- Ki (5-HT2A): 251 nM
- EC50 (5-HT1A): full or partial agonists at 5-HT1D and 5-HT1A in a transducer-dependent fashion
- Emax (CHRM4; HEK293, read-out: Xanomeline, Assay=Gi1): 98.4%
- Emax (CHRM4; [6]): 110%
- Emax (CHRM4; HEK293, read-out: Xanomeline, Assay=Gi3): 86%
- Emax (CHRM4; [7]): 107%
- Emax (CHRM4; [8]): 106%
- Emax (CHRM4; HEK293, read-out: Xanomeline, Assay=Gz): 94.1%
- Emax (CHRM3; HEK293, read-out: Xanomeline, Assay=Gq): 65.6%
- Emax (HRH3; [6]): 28.5%
- Emax (HRH3; [7]): 25.7%
- Emax (HRH3; [8]): 19%
- EC50 (M5): differential activation of M1-M5 muscarinic receptor transducers
- EC50 (M2): differential activation of M1-M5 muscarinic receptor transducers
- Ki (KOR): 1780 nM
- Ki (D3): 251 nM
